Patent publication US20260130906A1, “THERAPY COMPRISING ANTI-CD19 ANTIBODY AND SUMO-ACTIVATING ENZYME INHIBITOR” (TAKEDA PHARMACEUTICAL COMPANY LIMITED, priority 2021, published 2026)

Legend:
[1] = tested on: RAMOS; assay: ADCP assay (macrophages); type: cell-based; conditions: macrophages pre-treated 1 μM TAK-981 and/or 1 nM tafasitamab, E:T 2:1, 3 h, FIG. 4
Protocol: Monocytes were positively selected from PBMCs using CD14 MicroBeads on a MACS LS column according to the manufacturer's protocol (Miltenyi Biotec). Isoltaed cells were re-suspended in RPMI medium supplemented with 10% FCS and 1× GlutaMax. Monocytes were maturated into macrophages in T-flasks for 6 to 7 days in the presence of 50 ng/ml M-CSF.
After maturation, macrophages were stained with 2 μM CFSE and detached using 5 mM EDTA and scraping. After washing with PBS, macrophages were re-suspended in medium containing either DMSO (negative control) or 1 μM TAK-981 and allowed to re-attach in 96 well culture plates for 16-24 hours. Target cells were stained using the CellTrace Violet Cell Proliferation Kit (Invitrogen) and co-cultured with pre-treated macrophages in the presence or absence of 1 nM tafasitamab for 3 hours at an E:T ratio of 2:1. The cells were detached using 0.05% Trypsin-EDTA and transferred into multi-well flow cytometry plates. Using flow cytometry the percentage of phagocytosis was evaluated, defined as the percentage of double positive cells out of all CellTrace Violet positive cells.

[2] = target: SUMO-activating enzyme (Homo sapiens, UniProt Q9UBT2); assay: Biochemical assays of SUMO-activating enzyme inhibition
Source text: (§1) SAE inhibitors, as disclosed herein, are described, for example, in US 2016/0009744 and U.S. Pat. No. 9,695,154 which is hereby incorporated by reference in its entirety. They may be prepared by methods known to one skilled in the art and/or according to the methods described in US 2016/0009744 and U.S. Pat. No. 9,695,154 . . . . Central to the mechanism of action of useful SAE inhibitors, such as Compound I-263a, in combinations and methods of the present disclosure is production of type 1 IFNs and induction of an innate immune response with activation of both natural killer (NK) cells and macrophages.

[3] = tested on: SUMO-activating enzyme and SUMOylation; assay: Inhibition of SAE and SUMOylation in cultured tumor cell lines; type: cell-based; conditions: cultured mouse and human tumor cell lines
Source text: as §1

[4] = tested on: Daudi human xenograft tumor model; assay: Study 1: Daudi human xenograft tumor model; type: in vivo, CB17 SCID mice; conditions: for tumor growth inhibition as a single agent (in words): Daudi human Burkitt's lymphoma mouse model; for GRI % / Tumor volume on Day 21 (±SEM): Daudi; for GRI %: Day 21, vs vehicle; for Tumor volume on Day 21 (±SEM): in mm³ (unit assumed)
Protocol: The differences in the tumor growth trends over time between pairs of treatment groups were assessed by fitting each animal's data to a simple exponential growth model and comparing the mean growth rates of the two groups, as described in more detail below. The difference in the growth rates was summarized by the GRI, which is the reduction in growth rate experienced by the treatment group relative to that of the reference group, expressed as a fraction of the vehicle growth rate.
A GRI greater than 100% is interpreted as tumor regression when the vehicle group is the same as the reference group. A negative value of the GRI means that the tumors in the treatment group grew faster than the tumors in the reference group. Statistical significance was determined using an unpaired t-test.
Low tumor volumes can cause problems with the data analysis, so all measurements below 25 cubic mm (including 0 values) were excluded from the analysis. After this exclusion step, the tumor volume was assumed to follow an exponential growth model. […]
Daudi is a human Burkitt's Lymphoma cell line. A Daudi human xenograft tumor model was generated by subcutaneous inoculation in the flank of 9 week old female CB17 SCID mice (Charles River Laboratories, Wilmington, MA) with 2.0×10^6 Daudi cells (cell suspension in 0.1 ml RPMI with Matrigel 1:1). When the mean tumor volume reached approximately 140 mm^3, the animals were randomized into one vehicle control group and seven treatment groups (n=7/group) as described in Table 1a. Mice were then dosed with 20% HPβCD or Compound I-263a and/or tafasitamab over a 3 week period. In the combination treatment groups, I-263a was administered first, followed immediately by the administration of tafasitamab. Tumor growth and body weight were measured twice per week during the treatment and post-treatment periods, and mice were humanely euthanized once they had reached their humane endpoint. Tumors were measured using Vernier calipers and volumes were calculated using standard equation: V=W^2×L/2, where V=volume, W=width, and L=length for the tumor.
A 0.8625 mg/mL stock solution of I-263a was formulated weekly in 20% HPβCD and administered intravenously (IV) based on an average body weight using a 0.2 mL dosing volume. Final dose of I-263a received was 7.5 mg/kg. I-263a was administered on a BIW schedule for 3 weeks (Days 0, 4, 7, 11, 14, 18). Tafasitamab was formulated prior to each injection in 0.9% saline at 0.354, 1.15, and 2.3 mg/mL. Final dose of tafasitamab received was 3, 10, or 20 mg/kg based on average body weight. Tafasitamab was administered intraperitoneally (IP) using a 0.2 mL dosing volume, on a BIW schedule for 3 weeks (Days 0, 4, 7, 11, 14, 18). The vehicle group received IV treatment with the vehicle for I-263a (20% HPβCD) on a BIW schedule for three weeks (Days 0, 4, 7, 11, 14, 18).
Statistical analysis for growth rate inhibition was performed on data up to and including Day 21.

Sequence of SUMO-activating enzyme (Q9UBT2 whole entry): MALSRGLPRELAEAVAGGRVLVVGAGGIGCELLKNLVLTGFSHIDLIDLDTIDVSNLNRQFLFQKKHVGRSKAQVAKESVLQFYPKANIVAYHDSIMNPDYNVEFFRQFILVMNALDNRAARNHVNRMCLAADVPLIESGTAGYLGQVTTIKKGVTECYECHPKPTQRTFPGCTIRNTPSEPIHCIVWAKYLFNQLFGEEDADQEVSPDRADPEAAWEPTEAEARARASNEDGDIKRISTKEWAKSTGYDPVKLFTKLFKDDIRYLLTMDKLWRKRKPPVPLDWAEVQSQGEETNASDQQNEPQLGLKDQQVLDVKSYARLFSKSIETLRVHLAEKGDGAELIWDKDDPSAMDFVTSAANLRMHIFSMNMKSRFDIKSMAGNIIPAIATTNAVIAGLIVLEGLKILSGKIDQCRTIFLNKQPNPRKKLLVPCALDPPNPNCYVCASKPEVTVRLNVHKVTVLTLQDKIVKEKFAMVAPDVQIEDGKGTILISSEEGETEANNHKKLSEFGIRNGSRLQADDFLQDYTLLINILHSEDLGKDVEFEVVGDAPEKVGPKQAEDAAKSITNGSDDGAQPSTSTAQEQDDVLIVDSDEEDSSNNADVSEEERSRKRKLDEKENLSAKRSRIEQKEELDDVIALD
Sequence of SUMO-activating enzyme (Q9UBE0 whole entry partner): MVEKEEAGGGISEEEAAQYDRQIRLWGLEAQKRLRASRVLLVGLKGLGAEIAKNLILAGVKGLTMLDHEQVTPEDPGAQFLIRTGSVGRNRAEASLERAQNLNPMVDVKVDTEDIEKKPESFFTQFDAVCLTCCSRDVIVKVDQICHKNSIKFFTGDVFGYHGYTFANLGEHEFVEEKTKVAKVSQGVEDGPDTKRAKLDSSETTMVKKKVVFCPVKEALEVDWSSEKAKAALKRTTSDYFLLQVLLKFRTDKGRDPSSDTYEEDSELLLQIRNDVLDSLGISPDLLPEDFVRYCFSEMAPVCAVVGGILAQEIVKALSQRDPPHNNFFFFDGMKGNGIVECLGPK
Sequence of SUMO-activating enzyme (P63165 1-97 partner limits assumed): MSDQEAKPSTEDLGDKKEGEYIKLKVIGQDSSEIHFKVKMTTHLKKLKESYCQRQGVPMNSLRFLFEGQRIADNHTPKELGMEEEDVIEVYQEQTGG

Molecule	Phagocytosis [1]	inhibition of SUMO-activating enzyme activity ([2]; mechanism-based, covalent adduct with SUMO)	selectivity for SUMO-activating enzyme ([2]; over ubiquitin-activating enzyme, Nedd8-activating enzyme, autophagy related 7 enzyme)	inhibition of SUMO-activating enzyme and SUMOylation [3]	tumor growth inhibition as a single agent (in words) [4]	GRI % ([4]; I-263a 7.5 mg/kg IV BIW) [%]	Tumor volume on Day 21 (±SEM) ([4]; I-263a 7.5 mg/kg IV BIW 3 weeks)	GRI % ([4]; tafasitamab 3 mg/kg IP BIW) [%]	GRI % ([4]; tafasitamab 10 mg/kg IP BIW) [%]	GRI % ([4]; tafasitamab 20 mg/kg IP BIW) [%]	Tumor volume on Day 21 (±SEM) ([4]; tafasitamab 3 mg/kg IP BIW 3 weeks)	Tumor volume on Day 21 (±SEM) ([4]; tafasitamab 10 mg/kg IP BIW 3 weeks)	Tumor volume on Day 21 (±SEM) ([4]; tafasitamab 20 mg/kg IP BIW 3 weeks)
Cc1sc(C(=O)c2cncnc2N[C@@H]2C[C@H](COS(N)(=O)=O)[C@@H](O)C2)cc1[C@@H]1NCCc2ccc(Cl)cc21 [Compound I-263a, [(1R,2S,4R)-4-{[5-({4-[(1R)-7-chloro-1,2,3,4-tetrahydroisoquinolin-1-yl]-5-methyl-2-thienyl}carbonyl)pyrimidin-4-yl]amino}-2-hydroxycyclopentyl]methyl sulfamate]	effectively phagocytosed	potently inhibits enzyme activity	Strong selectivity	Selective and potent inhibition	inhibits tumor growth	32	1015.9 ± 137.9	–	–	–	–	–	–
Tafasitamab: humanized monoclonal antibody that targets the antigen CD19, engineered in the IgG Fc-region to enhance ADCC; sequences in Table 1	effectively phagocytosed	–	–	–	inhibits tumor growth	–	–	24	28	38	1142 ± 135.1	1132.7 ± 116.5	835.2 ± 89.1
